Where “and” joins values, the source holds several entries; their conditions need not be identical. Identical values can stand only once. Toxic doses and inconclusive results are not listed.
System: BDF1 mice, P388 leukemia ip, median survival T/C
Experiment: NCI In Vivo Anticancer Drug Screen. Data for tumor model P388 Leukemia (intraperitoneal) in B6D2F1 (BDF1) mice
Conditions: endpoint: median survival time, higher = longer survival
Experimental: The antitumor activity of compounds was measured in mice bearing transplantable tumors. Survival or tumor size were measured and the results are expressed as the measurement made in the treated group (T) divided by the measurement made in the vehicle treated control group (C). The tumor model used in this assay is P388 Leukemia (intraperitoneal) in B6D2F1 (BDF1) mice

[1] = dose: 100.0 mg/kg/injection, schedule: Q04DX003 (ip), vehicle: saline with Tween-80
[2] = dose: 200.0 mg/kg/injection, schedule: Q04DX003 (ip), vehicle: saline with Tween-80
[3] = dose: 400.0 mg/kg/injection, schedule: Q04DX003 (ip), vehicle: saline with Tween-80
[4] = dose: 25.0 mg/kg/injection, schedule: Q01DX009 (ip), vehicle: saline
[5] = dose: 50.0 mg/kg/injection, schedule: Q01DX009 (ip), vehicle: saline

For `CCOC(=O)C1(C)CCCCC1=O` (centres undefined), the T/C [1] was 95 % of control, the T/C [2] was 104 % of control and the T/C [3] was 100 % of control.

With `COC(=O)[C@@]12OC[C@]34[C@H]([C@@H](O)[C@@H]1O)[C@@]1(C)CC(=O)C(OC(=O)CC(=O)OC5=C(C)[C@@H]6C[C@H]7OC(=O)[C@H](OC(=O)C=C(C)C)[C@H]8[C@]9(C(=O)OC)OC[C@]78[C@H]([C@@H](O)[C@@H]9O)[C@@]6(C)CC5=O)=C(C)[C@@H]1C[C@H]3OC(=O)[C@H](OC(=O)C=C(C)C)[C@@H]24` the T/C (dose: 0.18 mg/kg/injection, schedule: Q01DX009 (ip), vehicle: distilled water + Tween-80) was 104 % of control, the T/C (dose: 0.37 mg/kg/injection, schedule: Q01DX009 (ip), vehicle: distilled water + Tween-80) was 104 % of control and the T/C (dose: 0.75 mg/kg/injection, schedule: Q01DX009 (ip), vehicle: distilled water + Tween-80) was 100 % of control. The T/C (dose: 1.5 mg/kg/injection, schedule: Q01DX009 (ip), vehicle: distilled water + Tween-80) was 98 % of control and the T/C (dose: 3.0 mg/kg/injection, schedule: Q01DX009 (ip), vehicle: distilled water + Tween-80) was 111 % of control.

`C[C@]12CC[C@H]3[C@@H](CCC4=CC(=O)CC[C@@]43C)[C@@H]1CC[C@@H]2OC(=O)Cc1ccc(N(CCCl)CCCl)cc1` was tested, and the T/C (dose: 64.0 mg/kg/injection, schedule: Q01DX009 (ip), vehicle: Klucel (hydroxypropylcellulose) (HPC)) was 104 % of control and 105 % of control, the T/C (dose: 100.0 mg/kg/injection, schedule: Q01DX009 (ip), vehicle: saline with Tween-80) was 113 % of control and the T/C (dose: 128.0 mg/kg/injection, schedule: Q01DX009 (ip), vehicle: Klucel (hydroxypropylcellulose) (HPC)) was 111 % of control and 123 % of control. For the same compound, the T/C (dose: 256.0 mg/kg/injection, schedule: Q01DX009 (ip), vehicle: Klucel (hydroxypropylcellulose) (HPC)) was 157 % of control, the T/C (dose: 264.0 mg/kg/injection, schedule: Q04DX003 (ip), vehicle: saline with Tween-80) was 120 % of control and the T/C (dose: 400.0 mg/kg/injection, schedule: Q01DX009 (ip), vehicle: saline with Tween-80) was 209 % of control. The T/C [3] was 154 % of control, the T/C (dose: 512.0 mg/kg/injection, schedule: Q01DX009 (ip), vehicle: Klucel (hydroxypropylcellulose) (HPC)) was 115 % of control and the T/C (dose: 600.0 mg/kg/injection, schedule: Q04DX003 (ip), vehicle: saline with Tween-80) was 200 % of control.

With `COC(=O)c1ccc(C(=O)OC)c(=O)[nH]1` the T/C (dose: 100.0 mg/kg/injection, schedule: Q01DX009 (ip), vehicle: Klucel (hydroxypropylcellulose) (HPC)) was 100 % of control, the T/C (dose: 100.0 mg/kg/injection, schedule: Q04DX003 (ip), vehicle: Klucel (hydroxypropylcellulose) (HPC)) was 104 % of control and the T/C (dose: 200.0 mg/kg/injection, schedule: Q01DX009 (ip), vehicle: Klucel (hydroxypropylcellulose) (HPC)) was 95 % of control. The T/C (dose: 200.0 mg/kg/injection, schedule: Q04DX003 (ip), vehicle: Klucel (hydroxypropylcellulose) (HPC)) was 104 % of control, the T/C (dose: 400.0 mg/kg/injection, schedule: Q01DX009 (ip), vehicle: Klucel (hydroxypropylcellulose) (HPC)) was 91 % of control and the T/C (dose: 400.0 mg/kg/injection, schedule: Q04DX003 (ip), vehicle: Klucel (hydroxypropylcellulose) (HPC)) was 104 % of control.

For `O=C(NC(C(=O)O)c1ccccc1)OCc1ccccc1` (centres undefined), the T/C [1] was 104 % of control, the T/C [2] was 109 % of control and the T/C [3] was 100 % of control.

With `S=C(S)N1CCN(C(=S)S)CC1` the T/C [4] was 100 % of control and 104 % of control and 110 % of control, the T/C (dose: 35.0 mg/kg/injection, schedule: Q01DX009 (ip), vehicle: saline) was 91 % of control and the T/C [5] was 95 % of control and 105 % of control. The T/C (dose: 100.0 mg/kg/injection, schedule: Q01DX009 (ip), vehicle: saline) was 95 % of control and the T/C (dose: 200.0 mg/kg/injection, schedule: Q01DX009 (ip), vehicle: saline) was 86 % of control.

`CN1C2CCC1CN(Cc1ccccc1)C2` was tested, and the T/C (dose: 12.5 mg/kg/injection, schedule: Q01DX009 (ip), vehicle: saline) was 95 % of control, the T/C (dose: 12.5 mg/kg/injection, schedule: Q04DX003 (ip), vehicle: saline) was 88 % of control and the T/C [4] was 95 % of control. For the same compound, the T/C (dose: 25.0 mg/kg/injection, schedule: Q04DX003 (ip), vehicle: saline) was 100 % of control, the T/C [5] was 91 % of control and the T/C (dose: 50.0 mg/kg/injection, schedule: Q04DX003 (ip), vehicle: saline) was 100 % of control.

With `O=C1c2ccccc2C(=O)N1CC[P+](c1ccccc1)(c1ccccc1)c1ccccc1` the T/C (dose: 0.78 mg/kg/injection, schedule: Q01DX009 (ip), vehicle: water) was 103 % of control, the T/C (dose: 1.56 mg/kg/injection, schedule: Q04DX003 (ip), vehicle: water) was 112 % of control and the T/C (dose: 3.12 mg/kg/injection, schedule: Q04DX003 (ip), vehicle: water) was 94 % of control and 123 % of control. The T/C (dose: 3.13 mg/kg/injection, schedule: Q01DX009 (ip), vehicle: Klucel (hydroxypropylcellulose) (HPC)) was 165 % of control, the T/C (dose: 6.25 mg/kg/injection, schedule: Q01DX009 (ip), vehicle: Klucel (hydroxypropylcellulose) (HPC)) was 151 % of control and 153 % of control and the T/C (dose: 6.25 mg/kg/injection, schedule: Q01DX009 (ip), vehicle: water) was 174 % of control. For the same compound, the T/C (dose: 6.25 mg/kg/injection, schedule: Q04DX003 (ip), vehicle: water) was 108 % of control and 120 % of control, the T/C (dose: 12.5 mg/kg/injection, schedule: Q01DX009 (ip), vehicle: Klucel (hydroxypropylcellulose) (HPC)) was 157 % of control and 160 % of control and the T/C (dose: 12.5 mg/kg/injection, schedule: Q01DX009 (ip), vehicle: water) was 158 % of control. For the same compound, the T/C (dose: 12.5 mg/kg/injection, schedule: Q04DX003 (ip), vehicle: water) was 119 % of control and 120 % of control, the T/C (dose: 25.0 mg/kg/injection, schedule: Q01DX009 (ip), vehicle: Klucel (hydroxypropylcellulose) (HPC)) was 90 % of control and the T/C (dose: 50.0 mg/kg/injection, schedule: Q04DX003 (ip), vehicle: water) was 120 % of control.

— PubChem BioAssay AID328 (DTP/NCI, 2004)
